These are literature values, as cited in US9526701B2, “Sustained drug release and improved product stability using non-covalent particle coating methods” (priority 2011, dated 2016).

The conditions of this data set: for half life in the blood: following administration; for bioavailability: oral administration.

Regarding `N[C@@H](Cc1cc(I)c(Oc2ccc(O)c(I)c2)c(I)c1)C(=O)O` [Example T3, 3,5,3′-triiodo-L-thyronine], the “half life in the blood” value was 20 to 30 h and the bioavailability entry is on record as “greater than 95%”.

Consider `N[C@@H](Cc1cc(I)c(Oc2cc(I)c(O)c(I)c2)c(I)c1)C(=O)O` [Example T4, 3,5,3′,5′-tetraiodo-L-thyronine], for which the “half life in the blood” value is reported as “greater than 7 days” and the bioavailability is listed as 45-65%.
